These results are taken from patent publication US20160263072A1, “MONOACYLGLYCEROLS AND FAT-SOLUBLE NUTRIENTS FOR USE IN THE TREATMENT OF MALABSORPTION HAVING A NON-MECHANICAL BASIS” (NESTEC S.A., priority 2013, published 2016).

A short description of data set [1]: Lipid maldigestion or malabsorption rat model (XENICAL-induced): EPA level in red blood cell and tissue lipids. It is filed as in vivo. The following applies: rats. The procedure: The concept was tested in a lipid maldigestion or malabsorption rat model. The maldigestion or malabsorption condition was obtained using XENICAL® (ORLISTAT), a pancreatic and gastric lipases inhibitor (tetrahydrolipstatin; see FIG. 7). Rats were fed during 21 days with long-chain polyunsaturated fatty acid (LC-PUFA) supplements containing mainly eicosapentaenoic (EPA) acid. Fish oil was used as a source of triacylglycerols, and different EPA glycerides were evaluated. XENICAL® (ORLISTAT) was given at a level sufficient to decrease lipid absorption by 40%. A group receiving fish oil without XENICAL® (ORLISTAT) was used as a positive control. At different time intervals (D3, D7, […]), the fatty acid profiles of red blood cell and plasma lipids were determined. At the end of the experiment, the fatty acid profiles of different tissues were determined. The main objective was to follow the level of EPA in red blood cell and plasma lipids. The main comparison evaluated was the difference in EPA level between the group receiving EPA-containing sn-1(3) MAG in combination with XENICAL® (ORLISTAT) and the positive control group (fish oil+XENICAL® (ORLISTAT)).

Data set [2] in a line: Clinical study: delivery of EPA by sn-1(3) MAG vs fish oil (TAG) under XENICAL (ORLISTAT)-induced lipid maldigestion. The format is in vivo, humans. The method, then: This clinical study compared the efficacy of sn-1(3) MAG and fish oil (TAG) in delivering EPA in humans under lipid maldigestion conditions induced by XENICAL® (ORLISTAT). The comparison was tested in volunteers having a BMI of 37-40 kg/m^2 and treated with ORLISTAT® to induce lipid maldigestion or not treated with XENICAL® (ORLISTAT). The primary objective was to assess accretion of EPA in erythrocytes over 21 days when consumed as fish oil (TAG) or sn-1(3) MAG. The secondary objectives were to assess accretion of EPA in plasma over 21 days and also to assess the pharmacokinetics of EPA after an acute dose either in the form of sn-1(3) MAG or TAG (AUC in chylomicrons over 10 hours postprandial).

Consider `CCCCCCCCCCC[C@@H](C[C@@H]1OC(=O)[C@H]1CCCCCC)OC(=O)[C@H](CC(C)C)NC=O` [XENICAL® (ORLISTAT), tetrahydrolipstatin, reference compound], for which the “EPA incorporation in red blood cells” value in data set [1] (day 7, fish oil + XENICAL vs fish oil without XENICAL) is recorded as “decreases EPA incorporation in red blood cells”.
`CC/C=C\C/C=C\C/C=C\C/C=C\C/C=C\CCCC(=O)OC[C@@H](O)CO` [sn-1(3) MAG, 1,3 MAG-EPA]: the “incorporation of LC-PUFAs in tissue” value in data set [1] (conditions of lipid maldigestion or malabsorption) is on record as “improved”. For the same compound, the “chronic effect: accretion of EPA in erythrocytes after 21 days” value in data set [2] (humans, with XENICAL, vs fish oil and XENICAL, p=0.0001) is listed as “statistically significant”. Further, in data set [2] (humans, with XENICAL, vs fish oil and XENICAL, p=0.0003), the “chronic effect: accretion of EPA in plasma after 21 days” value was “statistically significant”. In data set [2] (obese subjects treated with XENICAL), the “carrier for EPA compared with fish oil (TAG)” value was “better carrier for EPA than fish oil”.
